Results published in patent publication US10287301B2 (Achillion Pharmaceuticals, Inc., priority 2015, dated 2019).
Where two headings read alike, the source gives them in different places.

Target: Human Factor D (Homo sapiens (Human), UniProt P00746)
Test: Human Factor D Assay
Format: biochemical
Conditions: read-out: IC50 (Stars)
How it was run: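 Serum-purified human Factor D (80 nM final) was preincubated with test compound at various concentrations for 5 min at room temperature in 50 mM Tris, 1M NaCl, pH 7.5. Z-L-Lys-SBzl and DTNB were then added at 100 μM each. IC50 came from nonlinear regression of reaction rates versus compound concentration.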

[1] = Table 3, Human Factor D 80 nM, substrate Z-L-Lys-SBzl

Sequence of Human Factor D (P00746 26-253): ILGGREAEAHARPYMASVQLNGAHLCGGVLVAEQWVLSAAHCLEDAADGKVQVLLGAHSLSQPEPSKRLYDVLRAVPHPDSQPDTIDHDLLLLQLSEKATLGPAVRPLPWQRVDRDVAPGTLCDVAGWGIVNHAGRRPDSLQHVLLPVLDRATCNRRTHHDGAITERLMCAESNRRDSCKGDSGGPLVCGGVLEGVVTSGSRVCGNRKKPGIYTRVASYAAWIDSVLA

| Compound | IC50 [1] [nM] | IC50 [nM] |
| --- | --- | --- |
| CC(=O)c1nn(CC(=O)N2[C@H](C(=O)Nc3cccc(Br)n3)C[C@@]3(C)C[C@@H]23)c2ccc(-c3cnc(C)nc3)cc12 [Compound 372, (1R,3S,5R)-2-(2-(3-Acetyl-5-(2-methylpyrimidin-5-yl)-1H-indazol-1-yl)acetyl)-N-(6-bromopyridin-2-yl)-5-methyl-2-azabicyclo[3.1.0]hexane-3-carboxamide] | < 1000 | – |
| COc1cc2c(cc1-c1cnc(C)nc1)c(C(C)=O)nn2CC(=O)N1C[C@H](F)C[C@H]1C(=O)Nc1cccc(Br)n1 [Compound 373, (2S,4R)-1-(2-(3-Acetyl-6-methoxy-5-(2-methylpyrimidin-5-yl)-1H-indazol-1-yl)acetyl)-N-(6-bromopyridin-2-yl)-4-fluoropyrrolidine-2-carboxamide] | < 1000 | – |
| CC(=O)c1nn(CC(=O)N2C[C@H](F)C[C@H]2C(=O)Nc2cccc(Br)n2)c2ccc(-c3cnc(CO)nc3)cc12 [Compound 374, (2S,4R)-1-(2-(3-Acetyl-5-(2-(hydroxymethyl)pyrimidin-5-yl)-1H-indazol-1-yl)acetyl)-N-(6-bromopyridin-2-yl)-4-fluoropyrrolidine-2-carboxamide] | < 1000 | – |
| CC(=O)c1nn(CC(=O)N2[C@@H]3C[C@@H]3C[C@H]2C(=O)Nc2cncc(Cl)n2)c2ccc(-c3cnc(C)nc3)cc12 [Compound 375, (1R,3S,5R)-2-(2-(3-Acetyl-5-(2-methylpyrimidin-5-yl)-1H-indazol-1-yl)acetyl)-N-(6-chloropyrazin-2-yl)-2-azabicyclo[3.1.0]hexane-3-carboxamide] | < 1000 | – |
| Cc1ncc(-c2ccc3c(c2)c(C(C)O)nn3CC(=O)N2C[C@H](F)C[C@H]2C(=O)Nc2cccc(Br)n2)cn1 (stereo partly drawn) [Compound 376, (2S,4R)-N-(6-bromopyridin-2-yl)-4-fluoro-1-(2-(3-(1-hydroxyethyl)-5-(2-methylpyrimidin-5-yl)-1H-indazol-1-yl)acetyl)pyrrolidine-2-carboxamide] | – | 1000 to 10000 |
| CC(=O)c1nn(CC(=O)N2C[C@H](F)C[C@H]2C(=O)Nc2ccnc(OCC(F)(F)F)n2)c2ccc(-c3cnc(C)nc3)cc12 [Compound 377, (2S,4R)-1-(2-(3-Acetyl-5-(2-methylpyrimidin-5-yl)-1H-indazol-1-yl)acetyl)-4-fluoro-N-(2-(2,2,2-trifluoroethoxy)pyrimidin-4-yl)pyrrolidine-2-carboxamide] | < 1000 | – |
| CC(=O)c1nn(CC(=O)N2C[C@H](F)C[C@H]2C(=O)Nc2ncn(CC(F)(F)F)n2)c2ccc(-c3cnc(C)nc3)cc12 [Compound 378, (2S,4R)-1-(2-(3-Acetyl-5-(2-methylpyrimidin-5-yl)-1H-indazol-1-yl)acetyl)-4-fluoro-N-(1-(2,2,2-trifluoroethyl)-1H-1,2,4-triazol-3-yl)pyrrolidine-2-carboxamide] | < 1000 | – |
| CNc1ncc(-c2ccc3c(c2)c(C(C)=O)nn3CC(=O)N2[C@@H]3C[C@@H]3C[C@H]2C(=O)Nc2cncc(Br)n2)cn1 [Compound 379, (1R,3S,5R)-2-(2-(3-Acetyl-5-(2-(methylamino)pyrimidin-5-yl)-1H-indazol-1-yl)acetyl)-N-(6-bromopyrazin-2-yl)-2-azabicyclo[3.1.0]hexane-3-carboxamide] | < 1000 | – |
| CC(=O)c1nn(CC(=O)N2[C@@H]3C[C@@H]3C[C@H]2C(=O)Nc2cncc(Br)n2)c2ccc(-c3cnc(NC4CC4)nc3)cc12 [Compound 380, (1R,3S,5R)-2-(2-(3-Acetyl-5-(2-(cyclopropylamino)pyrimidin-5-yl)-1H-indazol-1-yl)acetyl)-N-(6-bromopyrazin-2-yl)-2-azabicyclo[3.1.0]hexane-3-carboxamide] | < 1000 | – |
| CC(=O)c1nn(CC(=O)N2C[C@H](F)C[C@H]2C(=O)Nc2cc(Br)n(C)n2)c2ccc(-c3cnc(C)nc3)cc12 [Compound 381, (2S,4R)-1-(2-(3-Acetyl-5-(2-methylpyrimidin-5-yl)-1H-indazol-1-yl)acetyl)-N-(5-bromo-1-methyl-1H-pyrazol-3-yl)-4-fluoropyrrolidine-2-carboxamide] | < 1000 | – |
| CC(=O)c1nn(CC(=O)N2[C@H]3C[C@@]3(C)C[C@H]2C(=O)Nc2cccc(Br)n2)c2ccc(-c3cnc(C)nc3)cc12 [Compound 382, (1S,3S,5S)-2-(2-(3-Acetyl-5-(2-methylpyrimidin-5-yl)-1H-indazol-1-yl)acetyl)-N-(6-bromopyridin-2-yl)-5-methyl-2-azabicyclo[3.1.0]hexane-3-carboxamide] | < 1000 | – |
| CC(=O)c1nn(CC(=O)N2[C@H]3C[C@@]3(CO)C[C@H]2C(=O)Nc2cccc(Br)n2)c2ccc(-c3cnc(C)nc3)cc12 [Compound 383, (1S,3S,5R)-2-(2-(3-Acetyl-5-(2-methylpyrimidin-5-yl)-1H-indazol-1-yl)acetyl)-N-(6-bromopyridin-2-yl)-5-(hydroxymethyl)-2-azabicyclo[3.1.0]hexane-3-carboxamide] | < 1000 | – |
| COc1ncc(-c2ccc3c(c2)c(C(C)=O)nn3CC(=O)N2C[C@H](F)C[C@H]2C(=O)Nc2cccc(Br)n2)cn1 [Compound 384, (2S,4R)-1-(2-(3-Acetyl-5-(2-methoxypyrimidin-5-yl)-1H-indazol-1-yl)acetyl)-N-(6-bromopyridin-2-yl)-4-fluoropyrrolidine-2-carboxamide] | < 1000 | – |
| COc1ncc(-c2ccc3c(c2)c(C(C)=O)nn3CC(=O)N2[C@@H]3C[C@@H]3C[C@H]2C(=O)Nc2cncc(Br)n2)cn1 [Compound 385, (1R,3S,5R)-2-(2-(3-Acetyl-5-(2-methoxypyrimidin-5-yl)-1H-indazol-1-yl)acetyl)-N-(6-bromopyrazin-2-yl)-2-azabicyclo[3.1.0]hexane-3-carboxamide] | < 1000 | – |
| CC(=O)c1nn(CC(=O)N2C[C@H](F)C[C@H]2C(=O)Nc2cccc(Br)n2)c2cc(CN(C)C)c(-c3cnc(C)nc3)cc12 [Compound 387, (2S,4R)-1-(2-(3-Acetyl-6-((dimethylamino)methyl)-5-(2-methylpyrimidin-5-yl)-1H-indazol-1-yl)acetyl)-N-(6-bromopyridin-2-yl)-4-fluoropyrrolidine-2-carboxamide] | < 1000 | – |
| CCc1ncc(-c2ccc3c(c2)c(C(C)=O)nn3CC(=O)N2C[C@H](F)C[C@H]2C(=O)Nc2cncc(Br)n2)cn1 [Compound 388, (2S,4R)-1-(2-(3-Acetyl-5-(2-ethylpyrimidin-5-yl)-1H-indazol-1-yl)acetyl)-N-(6-bromopyrazin-2-yl)-4-fluoropyrrolidine-2-carboxamide] | < 1000 | – |
| CC(=O)c1nn(CC(=O)N2C[C@H](F)C[C@H]2C(=O)Nc2cncc(Br)n2)c2ccc(-c3cnc(C(C)C)nc3)cc12 [Compound 389, (2S,4R)-1-(2-(3-Acetyl-5-(2-isopropylpyrimidin-5-yl)-1H-indazol-1-yl)acetyl)-N-(6-bromopyrazin-2-yl)-4-fluoropyrrolidine-2-carboxamide] | < 1000 | – |
| CNc1ncc(-c2ccc3c(c2)c(C(C)=O)nn3CC(=O)N2C[C@H](F)C[C@H]2C(=O)Nc2cccc(Br)n2)cn1 [Compound 390, (2S,4R)-1-(2-(3-Acetyl-5-(2-(methylamino)pyrimidin-5-yl)-1H-indazol-1-yl)acetyl)-N-(6-bromopyridin-2-yl)-4-fluoropyrrolidine-2-carboxamide] | < 1000 | – |
| CC(=O)c1nn(CC(=O)N2C[C@H](F)C[C@H]2C(=O)Nc2cccc(Br)n2)c2ccc(-c3cnc(CC#N)nc3)cc12 [Compound 391, (2S,4R)-1-(2-(3-Acetyl-5-(2-(cyanomethyl)pyrimidin-5-yl)-1H-indazol-1-yl)acetyl)-N-(6-bromopyridin-2-yl)-4-fluoropyrrolidine-2-carboxamide] | < 1000 | – |
